Data on 2 molecules can be found in BindingDB's records for doi:10.1021/jm034188j (Morphochem, 2004).

The assay has as its target Methionine aminopeptidase (Staphylococcus aureus (strain MW2), UniProt P0A079). The assay is described as follows: MetAP Inhibition Assay. The settings on record: pH 7.5; 22 °C. The method, then:
The MetAP reaction with Co2+ as a cofactor is coupled to a prolyl aminopeptidase (ProAP) using Met-Pro-p-nitroanilide as substrate. MetAP-catalyzed cleavage of the N-terminal methionine produces prolyl-p-nitroanilide, which is rapidly hydrolyzed by ProAP to release a chromogenic product. This allows the MetAP reaction to be continuously monitored at 405 nm on a UVVIS spectrophotometer. The initial rate was calculated from the early part of the reaction progress curve (<5 min). Activity assays were performed in triplicate using eight to 16 concentrations of substrate or inhibitor.

Chain of Methionine aminopeptidase (P0A079 whole entry): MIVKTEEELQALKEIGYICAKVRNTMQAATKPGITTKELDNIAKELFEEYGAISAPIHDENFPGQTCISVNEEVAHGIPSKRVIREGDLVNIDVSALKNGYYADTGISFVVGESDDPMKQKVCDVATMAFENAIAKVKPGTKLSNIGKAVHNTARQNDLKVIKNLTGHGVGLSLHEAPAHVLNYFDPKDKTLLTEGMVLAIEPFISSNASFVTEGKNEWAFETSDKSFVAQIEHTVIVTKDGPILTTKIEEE

Usually IC50 stands for the midpoint of a concentration-inhibition curve. Read a low IC50 as greater potency in that assay. The molecule `CSCC[C@H](N)C(=O)c1ccccn1` [(2S)-2-amino-4-(methylsulfanyl)-1-(pyridin-2-yl)butan-1-one] displayed an IC50 of 16 µM.
The molecule `CSCC[C@H](N)C(=O)c1nccs1` [(2S)-2-amino-4-(methylsulfanyl)-1-(1,3-thiazol-2-yl)butan-1-one] registered a half-inhibitory concentration (IC50) of 19 µM.
